Measured values reported in US8371378B2, “Method for pre-treatment of subterranean sites adjacent to water injection wells” (E. I. du Pont de Nemours and Company, priority 2010, dated 2013).

Tests used:
[1] = Titration of amine coated core sand in brine #2 with 1N HCl, amine in solution by GC (Example 2); type: physicochemical; settings: brine #2, 1N HCl
Protocol: Helium was used as the carrier gas.
38 milligrams (mg) of N N-Dimethyl-1-Dodecanamine (hereafter referred to as “the amine”) was added to 10.210 gr of Pentane. This solution was added to 10.1845 gr of specific sand layers (Oa and Ob) obtained from the Schrader Bluff formation of the Milne Point Unit of the Alaskan North slope. The oil content of the sand was first removed using a mixture of methanol and toluene (50/50, volume/volume) as solvent washes. The solvent mixture was subsequently evaporated off the core sand to produce clean, dry, flowable core sand. This sand was mixed with the amine and pentane solution to produce a slurry. This slurry was thoroughly mixed and the pentane was evaporated off leaving the amine on the sand (hereafter referred to as sand/amine mixture). 100 ml of brine #2 (Table 3) was added to the sand/amine mixture to create the sand/amine/brine mixture. […] The fact that the amine was not detected underlined its strong binding to the sand particles. […] The data underlines the remarkable efficiency of an acid at ionizing and removing the amine from the sand.

[2] = Titration of sand/amine/brine mixture with 10% nitric acid, amine in solution by GC (Example 4); settings: core sand, brine #2, 10 wt % nitric acid
Protocol: (§1) Concentration of amines, in media and water, were analyzed by gas chromatography (GC). An Agilent Model 5890 (Agilent, Wilmington, Del.), GC equipped with a […] and a split/splitless injector, a DB-FFAP column (30 meter length×0.32 millimeter (mm) depth×0.25 micrometer particle size). […] The system was calibrated using a sample of N,N-Dimethyl-1-Dodecaneamine (Aldrich). Helium was used as the carrier gas. A temperature gradient of 50 degrees Celsius (° C.) to 250° C. at 30° C. increase per minute (min) was used. Retention times (in minutes, min) for various chemicals of interest included: N,N-Dimethyl-1-Dodecaneamine (8.08 min); N,N-Dimethyl-1-Tetradecaneamine (8.85 min); N,N-Dimethyl-1-Hexadecane-amine (9.90 min); N,N-Dimethyl-1-Octadecaneamine (10.26 min) and N-Methyl,N-Benzyl)-1-Tetradecaneamine (11.40 min).
The procedure outlined in Example 2 was used to produce the sand/amine mixture except that 519 mg of the amine, 10 gr of Pentane. and 60.062 gr of sand from the Oa and Ob layers were used. 29.065 gr of this sand/amine mixture was added to 100 ml of brine #2 (Table 3) to create the sand/amine/brine mixture. […] 0.1 ml of 10 weight percent (wt %) nitric acid in water was added to this solution, and the pH and the amine concentration were measured again.

[3] = Titration of sand/amine/brine mixture with 10% acetic acid, amine in solution by GC (Example 5); settings: core sand, brine #2, 10 wt % acetic acid
Protocol: as §1
The same procedure outlined in Example 4 was repeated here to produce the sand/amine mixture. 30.85 grams (gr) of the sand/amine mixture was added to 100 ml of brine #2 (Table 3) to create the sand/amine/brine mixture.

SMILES: CCCCCCCCCCCCN(C)C [N-N-dimethyl-1-dodeanamine, N N-Dimethyl-1-Dodecanamine]
- pH of complete ionization and solubilization of the amine in the water [1]: < 6.0 pH
- pH of complete ionization and solubilization in the water of the amine [2]: < 6.7 pH
- pH of complete ionization and solubilization in the water of the amine [3]: < 6.7 pH
